From the NIST ThermoML archive (doi:10.1016/j.jct.2009.11.012)
± gives the expanded uncertainty stated by the source.

Experiments:
[1] = molar heat capacity at constant pressure; conditions: 101.33 kPa, Small sample (50 mg) DSC
[2] = DTA
[3] = molar enthalpy of transition or fusion; conditions: 298.15 K; Crystal 2; DSC
[4] = Molar enthalpy of transition or fusion; conditions: Crystal 2; DSC

With O=C(Nc1ccc(Cl)cc1)Nc1ccc(Cl)c(Cl)c1 [N-(4-chlorophenyl)-N'-(3,4-dichlorophenyl)urea] the “molar heat capacity at constant pressure” value ([1]; 263.15 K, Crystal 2) was 268.71 ± 5.5 J/K/mol, the “molar heat capacity at constant pressure” value ([1]; 265.15 K, Crystal 2) was 269.88 ± 5.5 J/K/mol and the “molar heat capacity at constant pressure” value ([1]; 270.15 K, Crystal 2) was 272.35 ± 5.5 J/K/mol. The “molar heat capacity at constant pressure” value ([1]; 275.15 K, Crystal 2) was 274.29 ± 5.6 J/K/mol, the “molar heat capacity at constant pressure” value ([1]; 280.15 K, Crystal 2) was 276.34 ± 5.6 J/K/mol and the “molar heat capacity at constant pressure” value ([1]; 285.15 K, Crystal 2) was 278.5 ± 5.6 J/K/mol. For the same compound, the “molar heat capacity at constant pressure” value ([1]; 290.15 K, Crystal 2) was 280.82 ± 5.6 J/K/mol, the “molar heat capacity at constant pressure” value ([1]; 295.15 K, Crystal 2) was 282.87 ± 5.7 J/K/mol and the “molar heat capacity at constant pressure” value ([1]; 298.15 K, Crystal 2) was 284.13 ± 5.7 J/K/mol. The “molar heat capacity at constant pressure” value ([1]; 300.15 K, Crystal 2) was 285.18 ± 5.7 J/K/mol, the “molar heat capacity at constant pressure” value ([1]; 305.15 K, Crystal 2) was 287.71 ± 5.7 J/K/mol and the “molar heat capacity at constant pressure” value ([1]; 310.15 K, Crystal 2) was 290.49 ± 5.7 J/K/mol. The “molar heat capacity at constant pressure” value ([1]; 315.15 K, Crystal 2) was 290.67 ± 5.7 J/K/mol, the “molar heat capacity at constant pressure” value ([1]; 320.15 K, Crystal 2) was 294.23 ± 5.8 J/K/mol and the “molar heat capacity at constant pressure” value ([1]; 325.15 K, Crystal 2) was 294.87 ± 5.8 J/K/mol. For the same compound, the “molar heat capacity at constant pressure” value ([1]; 330.15 K, Crystal 2) was 297.95 ± 5.8 J/K/mol, the “molar heat capacity at constant pressure” value ([1]; 335.15 K, Crystal 2) was 299.93 ± 5.8 J/K/mol and the “molar heat capacity at constant pressure” value ([1]; 340.15 K, Crystal 2) was 302.05 ± 5.8 J/K/mol. The “molar heat capacity at constant pressure” value ([1]; 345.15 K, Crystal 2) was 304.25 ± 5.9 J/K/mol, the “molar heat capacity at constant pressure” value ([1]; 350.15 K, Crystal 2) was 307.35 ± 5.9 J/K/mol and the “molar heat capacity at constant pressure” value ([1]; 355.15 K, Crystal 2) was 310.57 ± 5.9 J/K/mol. The “molar heat capacity at constant pressure” value ([1]; 360.15 K, Crystal 2) was 313.61 ± 6 J/K/mol, the “molar heat capacity at constant pressure” value ([1]; 365.15 K, Crystal 2) was 316.56 ± 6 J/K/mol and the “molar heat capacity at constant pressure” value ([1]; 370.15 K, Crystal 2) was 318.53 ± 6 J/K/mol. For the same compound, the “molar heat capacity at constant pressure” value ([1]; 375.15 K, Crystal 2) was 320.86 ± 6 J/K/mol, the “molar heat capacity at constant pressure” value ([1]; 380.15 K, Crystal 2) was 322.77 ± 6.1 J/K/mol and the “molar heat capacity at constant pressure” value ([1]; 385.15 K, Crystal 2) was 325.84 ± 6.1 J/K/mol. The “molar heat capacity at constant pressure” value ([1]; 390.15 K, Crystal 2) was 328.48 ± 6.1 J/K/mol, the “molar heat capacity at constant pressure” value ([1]; 395.15 K, Crystal 2) was 330.98 ± 6.2 J/K/mol and the “molar heat capacity at constant pressure” value ([1]; 400.15 K, Crystal 2) was 333.62 ± 6.2 J/K/mol. The “molar heat capacity at constant pressure” value ([1]; 405.15 K, Crystal 2) was 335.55 ± 6.2 J/K/mol, the “molar heat capacity at constant pressure” value ([1]; 410.15 K, Crystal 2) was 339.3 ± 6.2 J/K/mol and the “molar heat capacity at constant pressure” value ([1]; 475.15 K, Crystal 1) was 432.35 ± 18 J/K/mol. For the same compound, the “molar heat capacity at constant pressure” value ([1]; 480.15 K, Crystal 1) was 436.61 ± 19 J/K/mol, the “molar heat capacity at constant pressure” value ([1]; 485.15 K, Crystal 1) was 444.02 ± 19 J/K/mol and the “molar heat capacity at constant pressure” value ([1]; 490.15 K, Crystal 1) was 452.78 ± 19 J/K/mol. For the same compound, the “molar heat capacity at constant pressure” value ([1]; 495.15 K, Crystal 1) was 464.93 ± 20 J/K/mol, the Normal melting temperature ([2]; Crystal 1) was 254.4 ± 0.9 °C and the Triple point temperature ([2]; Crystal 2) was 428 ± 2 K. The “molar enthalpy of transition or fusion” value [3] was 43.5 ± 1.12 kcal/mol and the “Molar enthalpy of transition or fusion” value [4] was 1.46 ± 0.0717 kcal/mol.
